According to ChEMBL document CHEMBL4330100, “Selective estrogen receptor degraders with novel structural motifs induce regression in a tamoxifen-resistant breast cancer xenograft” (Bioorg Med Chem Lett, 2019):
Active and inactive are the calls of the source. The rule behind the calls is not given here.

Experiments:
[1] = Half life in CD-1 mouse at 3 mg/kg, iv; assay type: ADME, organism-based; settings: in vivo; for half-life: CD-1, mouse
[2] = Fraction unbound in 10% CD-1 mouse plasma at 10 uM measured after 20 to 24 hrs by equlibrium dialysis method; assay type: ADME, cell-free; settings: 10% plasma
[3] = biological target: T1, Estrogen receptor (Homo sapiens, UniProt P03372); assay: Induction of ERalpha degradation in human MCF7 cells in phenol red free RPMI medium containing 5% charcoal-stripped FBS incubated for 4 hrs by IRDye 800CW/DRAQ5 dye based in-cell Western assay
T1 sequence (P03372 whole entry): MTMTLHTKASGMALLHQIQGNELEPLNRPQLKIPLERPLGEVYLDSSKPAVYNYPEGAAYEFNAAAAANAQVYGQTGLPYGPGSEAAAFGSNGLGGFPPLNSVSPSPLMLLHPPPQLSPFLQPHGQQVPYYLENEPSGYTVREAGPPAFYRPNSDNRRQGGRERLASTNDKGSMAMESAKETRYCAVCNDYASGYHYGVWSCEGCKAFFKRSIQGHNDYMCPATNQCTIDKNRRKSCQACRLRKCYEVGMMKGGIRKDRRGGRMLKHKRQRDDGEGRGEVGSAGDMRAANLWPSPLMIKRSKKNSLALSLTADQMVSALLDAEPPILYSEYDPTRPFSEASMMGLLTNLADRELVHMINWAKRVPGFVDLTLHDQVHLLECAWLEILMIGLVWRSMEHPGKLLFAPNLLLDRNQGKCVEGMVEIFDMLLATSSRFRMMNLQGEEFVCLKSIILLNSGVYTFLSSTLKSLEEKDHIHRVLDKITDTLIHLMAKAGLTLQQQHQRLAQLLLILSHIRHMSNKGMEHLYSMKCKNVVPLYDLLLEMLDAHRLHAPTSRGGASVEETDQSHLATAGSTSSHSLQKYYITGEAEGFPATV

[4] = system: MCF7; assay: Antiproliferative activity against human MCF7 cells assessed as reduction in cell proliferation measured after 5 days by Cell-titer-Glo assay; assay type: functional, cell-based; settings: MCF7, 120 h
[5] = system: Rattus norvegicus; assay: In vivo antagonist activity at estrogen receptor in CD-IGS rat assessed as inhibition of estrogen-stimulated uterine growth at 1 mg/kg, po administered daily 15 mins before estrogen treatment for 3 days and measured 24 hrs post last dose relative to ARN-180; assay type: functional
[6] = AUC in CD-1 mouse at 10 mg/kg, po administered at truncated timecourse (1, 4, 24 hrs); assay type: ADME, organism-based; settings: in vivo
[7] = AUC in CD-1 mouse at 10 mg/kg, po; assay type: ADME, organism-based; settings: in vivo
[8] = Oral bioavailability in CD-1 mouse at 10 mg/kg; assay type: ADME, organism-based; settings: in vivo; for bioavailability: CD-1, mouse
[9] = Plasma clearance in CD-1 mouse at 3 mg/kg, iv; assay type: ADME, organism-based
[10] = Volume of distribution at steady state in CD-1 mouse at 3 mg/kg, iv; assay type: ADME, organism-based; settings: in vivo; for Vd: CD-1, mouse, read-out: Vdss
[11] = system: Homo sapiens; assay: Antitumor activity against human TamR1 cells xenografted in nu/nu mouse assessed as tumor regression at 30 mg/kg, po administered daily for 4 weeks; assay type: functional, organism-based
[12] = system: Rattus norvegicus; assay: In vivo antagonist activity at estrogen receptor in CD-IGS rat assessed as reduction in 17alpha-ethynylestradiol-stimulated increase in uterine wet weight at 1 mg/kg, po administered daily 15 mins before 17alpha-ethynylestradiol treatment for 3 days and measured 24 hrs post last dose relative to basal level; assay type: functional
[13] = Oral bioavailability in CD-1 mouse at 10 mg/kg administered at truncated timecourse (1, 4, 24 hrs); assay type: ADME, organism-based; settings: in vivo
[14] = Plasma clearance in CD-1 mouse at 2 mg/kg, iv administered as cassette dose; assay type: ADME, organism-based
[15] = Volume of distribution at steady state in CD-1 mouse at 2 mg/kg, iv administered as cassette dose; assay type: ADME, organism-based; settings: in vivo, read-out: Vdss
[16] = Half life in CD-1 mouse at 2 mg/kg, iv administered as cassette dose; assay type: ADME, organism-based; settings: in vivo

| SMILES | half-life [1] [h] | fraction unbound at 10 µM [2] | EC50 [3] [nM] | IC50 [4] [nM] | Efficacy [5] [%] | Activity [11] | Efficacy [12] [%] | other results |
| --- | --- | --- | --- | --- | --- | --- | --- | --- |
| CC/C(=C(/c1ccc(/C=C/C(=O)O)cc1)c1ccc2[nH]ncc2c1)c1ccc(F)cc1Cl [BRILANESTRANT] | 4.6 | 0.011 | – | – | – | – | – | – |
| COc1ccc(/C(=C(\c2ccc(/C=C/C(=O)O)cc2)c2ccc(-c3cncs3)cc2)C2CCC2)c(Cl)c1 | – | 0.001 | 0.8 | 1.8 | 93 | – | – | AUC at 24 h [6]: 3800 ng·h/mL |
| COc1ccc(/C(=C(\c2ccc(/C=C/C(=O)O)cc2)c2ccc3scnc3c2)C2CCC2)c(Cl)c1 | 3.2 | 0.002 | 0.4 | 0.9 | 94 | Active | – | AUC ([7]; CD-1, mouse, read-out: AUC): 75000 ng·h/mL; bioavailability [8]: 80%; clearance [9]: 1.8 mL/min/kg; Vd [10]: 0.3 L/kg |
| COc1ccc(/C(=C(\c2ccc(/C=C/C(=O)O)cc2)c2ccc3nccn3c2)C2CCC2)c(Cl)c1 | – | 0.015 | 0.3 | 0.7 | 93 | inactive | – | AUC ([7]; mouse): 8400 ng·h/mL; F ([8]; mouse): 69%; Vdss ([10]; mouse): 0.9 L/kg; t1/2 ([1]; mouse): 1.2 h |
| N#Cc1cc(Cl)ccc1/C(=C(\c1ccc(/C=C/C(=O)O)cc1)c1ccc(-c2cn[nH]c2)cc1)C1CCC1 | – | – | 1.1 | 4.4 | – | – | 94 | – |

Further lines, with some results ahead:

| half-life [1] [h] | fraction unbound at 10 µM [2] | EC50 [3] [nM] | IC50 [4] [nM] | SMILES | Efficacy [5] [%] | Activity [11] | Efficacy [12] [%] | other results |
| --- | --- | --- | --- | --- | --- | --- | --- | --- |
| 2.9 | 0.004 | 0.6 | 2.1 | COc1ccc(/C(=C(\c2ccc(/C=C/C(=O)O)cc2)c2ccc(N3CCOCC3)cc2)C2CCC2)c(Cl)c1 | 92 | Active | – | AUC ([7]; CD-1, mouse, read-out: AUC): 40000 ng·h/mL; bioavailability [8]: > 100%; clearance [9]: 5.1 mL/min/kg; Vd [10]: 1.5 L/kg |
| – | – | 1.9 | 6.9 | O=C(O)/C=C/c1ccc(/C(=C(\c2ccc(C(F)(F)F)cc2Cl)C2CCC2)c2ccc(N3CCOCC3)cc2)cc1 | – | – | 93 | – |
| – | – | 1 | 2.6 | O=C(O)/C=C/c1ccc(/C(=C(\c2ccc(C(F)(F)F)cc2Cl)C2CCC2)c2ccc3scnc3c2)cc1 | – | – | 93 | – |
| – | 0.002 | 1.5 | 5.1 | COc1ccc(/C(=C(\c2ccc(/C=C/C(=O)O)cc2)c2ccc(-c3cn[nH]c3)cc2)C2CCC2)c(Cl)c1 | 93 | – | – | AUC at 24 h [6]: 18000 ng·h/mL; bioavailability [13]: 52%; clearance [14]: 4.8 mL/min/kg; Vd [15]: 0.6 L/kg; half-life [16]: 3 h |
